Source: BindingDB's records for doi:10.1021/acs.jmedchem.7b00585 (The Scripps Research Institute, 2017)

What follows are compounds tested against T1, Estrogen receptor (Homo sapiens, UniProt P03372) (assay: (§1) Displacement of [3H]estradiol from full-length human ERalpha receptor by scintillation counting).
T1 sequence (P03372 whole entry): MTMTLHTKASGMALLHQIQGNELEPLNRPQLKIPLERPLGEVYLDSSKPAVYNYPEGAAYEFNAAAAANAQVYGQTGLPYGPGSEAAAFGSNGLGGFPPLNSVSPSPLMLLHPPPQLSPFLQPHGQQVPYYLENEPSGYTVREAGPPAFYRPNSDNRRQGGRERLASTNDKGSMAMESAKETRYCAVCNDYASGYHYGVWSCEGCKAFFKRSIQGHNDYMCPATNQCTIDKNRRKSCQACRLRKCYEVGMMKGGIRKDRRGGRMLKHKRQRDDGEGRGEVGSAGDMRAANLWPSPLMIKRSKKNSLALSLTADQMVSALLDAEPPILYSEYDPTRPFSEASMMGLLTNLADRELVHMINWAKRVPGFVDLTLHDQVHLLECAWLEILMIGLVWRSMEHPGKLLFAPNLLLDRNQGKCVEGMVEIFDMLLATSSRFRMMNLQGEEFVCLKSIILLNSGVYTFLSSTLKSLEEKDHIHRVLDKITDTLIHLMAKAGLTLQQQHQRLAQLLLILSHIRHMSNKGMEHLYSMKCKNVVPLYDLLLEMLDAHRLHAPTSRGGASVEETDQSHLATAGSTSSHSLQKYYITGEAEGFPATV

Compared with CCCCN(C)C(=O)/C=C/c1ccc(C(=C2C3CC4CC(C3)CC2C4)c2ccc(O)cc2)cc1, COC(=O)/C=C/c1ccc(C(=C2C3CC4CC(C3)CC2C4)c2ccc(O)cc2)cc1 is 1.7-fold lower in Ki: 0.71 nM for the first, 0.43 nM for the second. The second binds more tightly here.

First: O=C(/C=C/c1ccc(C(=C2C3CC4CC(C3)CC2C4)c2ccc(O)cc2)cc1)OCCO
Second: O=C(/C=C/c1ccc(C(=C2C3CC4CC(C3)CC2C4)c2ccc(O)cc2)cc1)OCCCO
The Ki of the first is 1.9-fold lower: 0.37 nM for the first, 0.71 nM for the second. The first binds more tightly here.

NCCCNC(=O)/C=C/c1ccc(C(=C2C3CC4CC(C3)CC2C4)c2ccc(O)cc2)cc1 and O=C(/C=C/c1ccc(C(=C2C3CC4CC(C3)CC2C4)c2ccc(O)cc2)cc1)NCCCO are within 1.5-fold of each other in Ki: 0.37 nM for the first, 0.43 nM for the second.

These compounds were tested against T1, Estrogen receptor (assay: ChEBML_1664056).
Source text: as §1

Work on CCCCNC(=O)/C=C/c1ccc(C(=C2C3CC4CC(C3)CC2C4)c2ccc(O)cc2)cc1 yielded a Ki of 0.71 nM.
